Data set [1] is described as follows: Antioxidant activity assessed as ROS scavenging activity. The class given is functional.
Data set [2] concerns HFF-1. The data set is described as follows: Cytotoxicity against HFF-1 cells upto 160 ug/mL incubated for 24 hrs by MTT assay. The class given is toxicity, cell-based. Particulars: human, hff-1, 24 h, up to 160 µg/mL. A general note: Tetrazolium assays rely on reduction of a dye to a coloured formazan, in cell work by metabolically active cells.
Data set [3] in a line: Antioxidant activity assessed as ABTS radical scavenging activity at 80 ug/mL incubated for 10 mins by absorbance based assay. The following applies: dose 80.0 µg/ml. Type of data set: functional.
For data set [4], the system named is HEK293. Briefly: Activation of COL1a2 transcriptional activity in HEK293 cells by dual-luciferase reporter assay. Particulars: Homo sapiens. The class given is functional, cell-based. In general terms: A reporter such as luciferase makes a cellular process visible.
A short description of data set [5]: Antioxidant activity assessed as DPPH radical scavenging activity by measuring eradication rate at 80 ug/mL incubated for 30 mins by absorbance based assay relative to control. The class given is functional. Particulars: dose 80.0 µg/ml. For orientation: Loss of DPPH colour is used to gauge radical scavenging.
In data set [6] the test system is Mus musculus. The data set is described as follows: Protection against UV radiation-stress induced skin damage in Kunming mouse model assessed as repair of broken skin at 20 ug/ml administered topically and measured every 2 days for 10 days. The class given is functional, organism-based. The following applies: dose 20.0 µg/ml, route top, time 10.0 day.

Molecules are shown by their SMILES. Calls of active or inactive are those of the source. The calls are words filed in the database; no cut-off is given here. Where a SMILES comes first, the peptide text is derived from it.

With `CC(C)[C@H](N)C(=O)N[C@H](C(=O)N1CCC[C@H]1C(=O)N1CCC[C@H]1C(=O)N[C@@H](CS)C(=O)N[C@@H](CCCCN)C(=O)O)C(C)C` (H-VVPPCK-OH), the result in data set [1] was Active. The Activity in data set [2] came to 2.84%.
As to `CC(C)C[C@H](NC(=O)[C@@H](N)C(C)C)C(=O)N1CCC[C@H]1C(=O)N[C@@H](CCCCN)C(=O)N[C@@H](CS)C(=O)N[C@@H](Cc1c[nH]c2ccccc12)C(=O)O` (H-VLPKCW-OH), the outcome in data set [1] was Active.
For the molecule `CC(C)[C@H](N)C(=O)N[C@H](C(=O)N[C@@H](CS)C(=O)N1CCC[C@H]1C(=O)N[C@@H](CCCCN)C(=O)O)C(C)C` (H-VVCPK-OH), the outcome in data set [3], in data set [1] and in data set [4] was Active.
Take `CC(C)C[C@H](NC(=O)[C@@H](N)C(C)C)C(=O)N[C@@H](CCCCN)C(=O)N[C@@H](CCCCN)C(=O)N[C@@H](CS)C(=O)O` (H-VLKKC-OH): the outcome in data set [3], in data set [1], in data set [4] and in data set [6] was Active. For the same molecule, the Activity in data set [5] worked out at 96.8%.
